Results: patent US8431356B2, “Fluorescence resonance energy transfer assays for sarco/endoplasmic reticulum calcium atpase and phospholamban” (Regents of the University of Minnesota, priority 2009, dated 2013)

Columns and labels:
SERCA [1] = molecular target: T1, SERCA (Oryctolagus cuniculus, UniProt P04191); assay: Functional potency of PLB variants by ATPase assay (reconstituted SERCA/PLB); assay type: biochemical; details: shift in pCa for 50% activation of SERCA, 5 PLB/SERCA, mean±SEM
T1 construct: from tissue
T1 sequence (P04191 1-994 isoform P04191-2): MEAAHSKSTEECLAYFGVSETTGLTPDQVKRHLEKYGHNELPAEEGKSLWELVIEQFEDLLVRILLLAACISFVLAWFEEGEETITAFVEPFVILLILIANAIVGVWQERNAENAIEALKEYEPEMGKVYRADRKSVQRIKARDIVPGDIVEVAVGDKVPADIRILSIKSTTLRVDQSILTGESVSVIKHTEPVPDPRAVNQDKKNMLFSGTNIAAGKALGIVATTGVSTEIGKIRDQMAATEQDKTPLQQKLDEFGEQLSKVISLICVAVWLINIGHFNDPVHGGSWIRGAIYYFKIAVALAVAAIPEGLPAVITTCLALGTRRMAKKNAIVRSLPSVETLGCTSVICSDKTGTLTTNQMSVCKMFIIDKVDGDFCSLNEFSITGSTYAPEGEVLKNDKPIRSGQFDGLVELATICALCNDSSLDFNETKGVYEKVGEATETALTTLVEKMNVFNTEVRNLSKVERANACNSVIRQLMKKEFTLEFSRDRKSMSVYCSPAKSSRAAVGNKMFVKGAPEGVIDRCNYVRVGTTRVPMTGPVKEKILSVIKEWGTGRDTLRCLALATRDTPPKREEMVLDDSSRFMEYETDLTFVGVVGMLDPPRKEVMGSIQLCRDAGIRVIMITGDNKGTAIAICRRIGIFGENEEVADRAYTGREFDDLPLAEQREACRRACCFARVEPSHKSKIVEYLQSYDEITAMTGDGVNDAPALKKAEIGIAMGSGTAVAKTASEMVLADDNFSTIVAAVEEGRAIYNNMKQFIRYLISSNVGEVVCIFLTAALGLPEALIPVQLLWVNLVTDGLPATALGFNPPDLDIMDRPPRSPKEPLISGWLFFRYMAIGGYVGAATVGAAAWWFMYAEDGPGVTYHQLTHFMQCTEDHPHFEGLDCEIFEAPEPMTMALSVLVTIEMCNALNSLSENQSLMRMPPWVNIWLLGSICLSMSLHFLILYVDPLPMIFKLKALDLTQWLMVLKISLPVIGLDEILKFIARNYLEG
Source text: (§1) For intermolecular FRET, IAEDANS-SERCA was reconstituted with DABCYL-PLB essentially as described previously (see Reddy et al., (1999) J. Biol. Chem. 274:7649-7655; Reddy et al., (1995) J. Biol. Chem. 270:9390-9397; Reddy et al., (1996) J. Biol. Chem. 271:14964-14970) but adapted to modify the SERCA membrane concentration (molar ratio, SERCA/1000 lipids) and PLB-to-SERCA ratio (molar ratio PLB/SERCA). The desired amount of DABCYL-PLB in methanol and lipids (DOPC and DOPE, 4:1 weight ratio in chloroform) were gently mixed and dried over nitrogen gas to create a thin film. Residual solvent was removed under vacuum and desiccant overnight. Lipids and peptides were solubilized in reconstitution buffer (5 mM MgCl2, 0.1M KCl, 10% glycerol, 20 mM MOPS, pH 7.0) by vortexing thoroughly, followed by mild sonication for 30 seconds to form unilamellar vesicles. C12E8 (2 mg/mg of lipid) was added to the tube. Detergent was removed over a 3 hour period using Biobeads SM2 (25 mg/mg of C12E8). FRET was measured immediately following reconstitution. Samples were frozen until gel electrophoresis.
(§2) ATPase activity was measured using an NADH-linked, enzyme-coupled microtiter plate assay (200 μL/well) as described in Karim et al., (2000) J. Biol. Chem. 276, 38814-9 and Reddy et al., (2003) Biochemistry 42, 4585-92. [Ca2+] was controlled by Ca/EGTA buffering by the method described in Fabiato et al., (1979) J. Physiol. (Paris) 75:463-505. The assays were detected at 340 nm on a Spectramax Plus microplate spectrophotometer (Molecular Devices) at 25° C. in the presence of ionophore A23187 to dissipate the Ca gradient building up across the membranes due to ATPase activity. The data were plotted (V vs pCa) and fitted by the Hill equation: […]
where V is the initial ATPase rate and n is the Hill coefficient. Data were normalized to the maximal rate, Vmax, which was obtained from the fit, and replotted to determine the shift in pKCa.
(§3) Functional potency was measured by ATPase assay as ΔpKCa, which stands for the shift in pCa value required for 50% activation of SERCA, at a ratio of 5 PLB/SERCA. FRET potency was measured as E(5), the energy transfer efficiency found at a ratio of 5 PLB/SERCA (N=4-6, mean±SEM).

SERCA [2] = molecular target: T1, SERCA; assay: FRET potency of PLB variants, IAEDANS-SERCA/DABCYL-PLB; assay type: binding; details: energy transfer efficiency at 5 PLB/SERCA, mean±SEM
Source text: as §1
(§4) The plates were read at 25° C. using a Gemini EM fluorescence microplate reader, with bottom excitation at 350 nm (6 flashes). The spectra were obtained with 10 nm resolution between 420 and 600 nm (PMT sensitivity set to High). Total read time per plate was estimated to be 20 minutes.
The free calcium concentration, [Ca^2+], was controlled by Ca/EGTA buffering, calculated by the method disclosed in Fabiato et al., (1979) J. Physiol. (Paris) 75:463-505. Measurements were conducted in low-Ca (pCa 6.5) buffer (50 mM KCl, 5 mM MgCl2, 0.5 mM EGTA, 210 μM CaCl2, 50 mM MOPS, pH 7.0), where the inhibitory effect of PLB was maximal.
(§5) The fluorescence resonance energy transfer efficiency (E) was calculated from the fractional decrease of steady-state emission of the donor (FD) due to the presence of the acceptor (FDA):
as §3

SERCA-PLB complex [3] = assay: Competition of LOF PLB mutants with acceptor-labeled active PLB, FRET; assay type: binding; details: 5 moles each per mole SERCA
Method: as §4, §5
(§6) The competition of WT-PLB and PLB derivatives was assessed by ATPase activity (e.g., Example 11) and FRET assays (e.g., Example 8). A reconstituted sample containing 5 moles of acceptor-labeled active PLB (WT or I40A) and 5 moles of an unlabeled loss-of-function (LOF) mutant (L31A or S16E) per mole of SERCA was compared with a control, a reconstituted sample with 5 moles of an active PLB (WT or I40A) per mole of SERCA. Competition was measured as the fractional decrease in ΔpKCa or FRET efficiency E, due to the presence of the LOF mutant (N=3-6, mean±SEM).

SERCA-PLB complex [4] = assay: Competition of LOF PLB mutants with active PLB, ATPase activity; assay type: biochemical; details: 5 moles each per mole SERCA
Method: as §2, §6

[5] = test system: LNCaP prostate cancer cells; details: administration of thapsigargin; cited from earlier work
[6] = competitor vs acceptor-labeled I40A PLB
[7] = competitor vs acceptor-labeled WT PLB

Functional potency (ΔpKCa) (SERCA [1])	FRET potency, E(5) (SERCA [2])	Functional relief (fractional decrease in ΔpKCa) (SERCA-PLB complex [4]; competitor vs I40A PLB)	Functional relief (fractional decrease in ΔpKCa) (SERCA-PLB complex [4]; competitor vs WT PLB)	Molecule	FRET relief (fractional decrease in FRET efficiency E) (SERCA-PLB complex [3]; [6])	FRET relief (fractional decrease in FRET efficiency E) (SERCA-PLB complex [3]; [7])	growth of LNCaP prostate cancer cells in mice [5]
0.18 ± 0.02	0.60 ± 0.03	–	–	WT: wild-type phospholamban (PLB), made by solid-phase peptide synthesis	–	–	–
0.07 ± 0.02	0.69 ± 0.02	0.40 ± 0.03	0.83 ± 0.05	S16E: PLB derivative, serine to glutamate at position 16; loss-of-function (LOF) mutant (MEKVQYLTRSAIRRAETIEMPQQARQKLQNLFINFCLILICLLLICIIVMLL; UniProt P26678 1-52, looked up, variant S16E)	0.15 ± 0.08	0.27 ± 0.10	–
0.48 ± 0.03	0.69 ± 0.03	–	–	I40A: PLB derivative, isoleucine to alanine at position 40; monomeric, superinhibitory gain-of-function mutant (MEKVQYLTRSAIRRASTIEMPQQARQKLQNLFINFCLILACLLLICIIVMLL; UniProt P26678 1-52, looked up, variant I40A)	–	–	–

More lines, now with the values behind:

Molecule	Functional potency (ΔpKCa) (SERCA [1])	FRET potency, E(5) (SERCA [2])	Functional relief (fractional decrease in ΔpKCa) (SERCA-PLB complex [4]; competitor vs I40A PLB)	Functional relief (fractional decrease in ΔpKCa) (SERCA-PLB complex [4]; competitor vs WT PLB)	FRET relief (fractional decrease in FRET efficiency E) (SERCA-PLB complex [3]; [6])	FRET relief (fractional decrease in FRET efficiency E) (SERCA-PLB complex [3]; [7])	growth of LNCaP prostate cancer cells in mice [5]
L31A: PLB derivative, leucine to alanine at position 31; loss-of-function (LOF) mutant (MEKVQYLTRSAIRRASTIEMPQQARQKLQNAFINFCLILICLLLICIIVMLL; UniProt P26678 1-52, looked up, variant L31A)	0.05 ± 0.01	0.45 ± 0.03	0.47 ± 0.06	0.79 ± 0.04	0.18 ± 0.12	0.37 ± 0.06	–
C/C=C(/C)C(=O)O[C@H]1C(C)=C2[C@H]([C@@H]1OC(=O)CCCCCCC)[C@@](C)(OC(C)=O)C[C@H](OC(=O)CCC)[C@@]1(O)[C@H]2OC(=O)[C@@]1(C)O [thapsigargin]	–	–	–	–	–	–	inhibited
